According to PubChem BioAssay (NCI):
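Five concentrations, 48 hours, 96-well plates. TGI: concentration producing complete growth inhibition.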

Legend:
Test in all cases: growth of human tumour cells (NCI), 48 h
DLD-1 colon = tested on: DLD-1 colon
DMS 273 small cell lung = tested on: DMS 273 small cell lung
M19-MEL melanoma = tested on: M19-MEL melanoma
RXF-631 renal = tested on: RXF-631 renal
SNB-78 CNS = tested on: SNB-78 CNS
XF 498 CNS = tested on: XF 498 CNS
HOP-18 NSCLC = tested on: HOP-18 NSCLC
KM20L2 colon = tested on: KM20L2 colon

SMILES	TGI (DLD-1 colon) [µM]	TGI (DMS 273 small cell lung) [µM]	TGI (M19-MEL melanoma) [µM]	TGI (RXF-631 renal) [µM]	TGI (SNB-78 CNS) [µM]	TGI (XF 498 CNS) [µM]	TGI (HOP-18 NSCLC) [µM]	TGI (KM20L2 colon) [µM]
O=C(c1ccccc1)C1S(=O)(=O)OCCOS1(=O)=O	> 100	> 100	> 100	> 100	> 100	> 100		
O=C1CC(c2ccccc2)=Nc2ccccc2N1	> 100	> 100	> 100		> 100	> 100	> 100	> 100
O=C1/C=C(/c2ccc(O)cc2)[C@@H](O)Cc2ccc(O)cc2O1	> 100		> 100	> 100	> 100			> 100
CCOC(=O)/C(=C/c1ccc(C(=O)OC)cc1)N(CC)CC			> 100		91.7			> 100
COc1c2c(c3ccccc3c1O)C1C=CC2C1 (stereo not given)	31.6	30.3	5.46			27.9	28.5	45.7
O=C(O)c1ccc(C2=Cc3cc(Cl)ccc3OC2)cc1	> 100	> 100	> 100		> 100	> 100	> 100	> 100
NC1=NS(=O)(=O)Nc2nc(-c3ccccc3)[nH]c21	> 100	> 100	> 100		> 100	> 100	> 100	> 100
O=[N+]([O-])C(/C=N/Nc1ccccc1)/C=N/Nc1ccccc1	> 100	> 100	> 100		> 100	> 100	> 100	> 100
CCOC(=O)C(Cc1c[nH]c2cc([N+](=O)[O-])ccc12)NS(=O)(=O)c1ccc2ccccc2c1 (stereo not given)	65.7	32.1	30.9		47.7	31.3	> 100	33.9
O=C(CSc1nc(-c2ccccc2)c(-c2ccccc2)[nH]1)N/N=C/c1ccc(O)cc1	> 100	48.3	51		> 100	99.6	> 100	55.8
COc1ccc([C@@H]2CC(=O)N2)cc1	> 100	> 100			> 100	> 100	> 100	> 100
O=C(c1ccc(Cl)cc1)N(C(=S)N1CCN(c2ccccn2)CC1)C1CCCCC1	> 100	> 100	> 100		> 100	80.3	> 100	> 100
